Reference: patent US20100048462A1, “TRUNCATED PTH PEPTIDES WITH A CYCLIC CONFORMATION” (Zealand Pharma A/S, priority 2006, published 2010)
Square brackets hold non-standard residues; d marks the D form. Peptide text beside a SMILES is read from it. hArg = N=C(N)NCCCC[C@H](N)C(=O)O; Ac5c = NC1(C(=O)O)CCCC1; Aib = CC(C)(N)C(=O)O

What was measured:
[1] = target: T1, PTH1R (Homo sapiens, UniProt Q03431); details: cited from earlier work
T1 sequence (Q03431 27-593): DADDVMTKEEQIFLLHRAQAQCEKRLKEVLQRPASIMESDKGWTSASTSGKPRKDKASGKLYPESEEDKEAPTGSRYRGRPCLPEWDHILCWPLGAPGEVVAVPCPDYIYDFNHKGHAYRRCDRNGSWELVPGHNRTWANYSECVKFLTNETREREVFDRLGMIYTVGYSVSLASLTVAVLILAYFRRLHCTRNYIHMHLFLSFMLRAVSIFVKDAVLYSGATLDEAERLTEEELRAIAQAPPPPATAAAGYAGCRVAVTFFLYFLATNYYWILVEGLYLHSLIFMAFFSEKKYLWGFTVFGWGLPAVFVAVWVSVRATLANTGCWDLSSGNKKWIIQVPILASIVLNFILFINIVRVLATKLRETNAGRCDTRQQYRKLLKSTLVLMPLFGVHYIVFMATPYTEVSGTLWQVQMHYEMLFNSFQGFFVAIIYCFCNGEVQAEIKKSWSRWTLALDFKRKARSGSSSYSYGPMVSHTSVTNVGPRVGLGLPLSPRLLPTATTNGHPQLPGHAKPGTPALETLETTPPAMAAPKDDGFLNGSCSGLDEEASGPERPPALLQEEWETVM

[2] = test system: ovariectomized rats; details: cited from earlier work; for bone-anabolic activity: ovariectomized rats
[3] = target: CYP2D6 (Homo sapiens, UniProt P10635); experiment: CYP2D6 inhibition in pooled human liver microsomes; type: in vitro ADME; set-up: Pooled human liver microsomes (HLM, final concentration 0.05 mg protein/mL); tissue BD Biosciences 452161; host or cells: pooled human liver microsomes; details: 10 μM compound, dextrorphan formation rate
Outline: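 Pooled HLM (0.05 mg/mL) in 0.1 M KPi pH 7.4 with 5 μM dextromethorphan and 10 μM test compound, preincubated 5 min at 37 °C, then started with NADPH-regenerating system for 5 min. Dextrorphan quantified by LC/MS/MS; activity expressed as % of vehicle; <70% considered significant.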

[4] = target: T2, Saos-2 PTH1R (Homo sapiens, UniProt Q03431); experiment: cAMP-efficacy assay in Saos-2 cells; type: cell-based; details: for EC50: cAMP, 100 μM IBMX, 37° C. 15 min, suffix of label = salt tested; for Emax ± SEM: relative effect to the control (SEQ ID NO: 32)
T2 construct: endogenous in cells; host or cells: Saos-2
T2 sequence (Q03431 27-593): T1 sequence (Q03431 27-593)
Outline: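 cAMP accumulation was assayed by FlashPlate after 15 min peptide stimulation at 37 °C of Saos-2 cells in Tyrode's buffer containing 100 μM IBMX and 0.1% BSA, with the reaction stopped by ice-cold HCl. Variable-slope logistic fitting gave EC50/pEC50, Hill coefficient and Emax, with single or triplicate points.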

[5] = target: T3, PTH receptor 1 (Mus musculus, UniProt P41593); experiment: MC3T3-E1 cAMP efficacy assay; type: cell-based, murine; details: MC3T3-E1 cells; for EC50: cAMP, 100 μM IBMX, 37° C.; for Emax ± SEM [pmol/well]: maximally inducible cAMP
T3 construct: host or cells: MC3T3-E1 subclone 4
T3 sequence (P41593 27-591): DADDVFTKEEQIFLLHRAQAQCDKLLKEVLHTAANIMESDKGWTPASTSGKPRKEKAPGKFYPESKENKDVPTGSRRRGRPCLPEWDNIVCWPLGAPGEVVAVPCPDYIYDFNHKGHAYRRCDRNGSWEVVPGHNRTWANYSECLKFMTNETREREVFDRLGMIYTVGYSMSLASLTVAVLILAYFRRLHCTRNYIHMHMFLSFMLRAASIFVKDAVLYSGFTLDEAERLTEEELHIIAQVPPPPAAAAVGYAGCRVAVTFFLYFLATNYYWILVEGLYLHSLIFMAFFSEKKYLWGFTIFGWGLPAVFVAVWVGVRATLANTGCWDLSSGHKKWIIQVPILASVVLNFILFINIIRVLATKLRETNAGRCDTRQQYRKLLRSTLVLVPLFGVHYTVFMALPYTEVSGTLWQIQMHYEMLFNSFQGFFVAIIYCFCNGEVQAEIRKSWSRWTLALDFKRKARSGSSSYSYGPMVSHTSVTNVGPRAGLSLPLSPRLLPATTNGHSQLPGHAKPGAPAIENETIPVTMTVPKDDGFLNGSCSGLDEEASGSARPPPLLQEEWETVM
Protocol: MC3T3-E1 cells were seeded at 10,000 cells/well in 96-microtiter plates and grown overnight before the efficacy assays. On the day of analysis the growth medium was carefully removed by suction. Cells were washed once with 200 μl TB/0.1% […]. The buffer was replaced with 100 μl reaction mixture (±test peptide, +100 μM IBMX) and incubated at 37° C. for 13 min. The reaction was stopped by addition of 25 μl of ice-cold 0.5 M HCl. Cells were in the following incubated on ice for 60 min. 75 μl acetate-buffer were added to each well in a 96-well cAMP FlashPlate. […] FlashPlates were incubated overnight at 4° C., emptied by suction and counted in a TopCounter.
Determinations were performed in triplicates at all doses. Standards were included as single determinations, duplicates or triplicates in each experiment, preferentially on each plate.
Efficacy was evaluated in the concentration range from […].
Concentration-dependent cAMP responses were imported into GraphPad Prism vers. 4, transformed and plotted. Curves were fitted with a function for sigmoidal dose response curve non-linear fit Y=Bottom+(Top-Bottom)/(1+10̂((LogEC50-X))) where X is the logarithm of concentration and Y is the response. Y starts at Bottom and goes to Top with a sigmoid shape. pEC50 and the maximally inducible concentration of cAMP were evaluated. Overall statistical differences were analyzed using one-way ANOVA. Post-hoc comparisons were made by the use of Fisher's Least Significance Test. Results were considered significant, when p was lower than 0.05.

Sequence of CYP2D6 (P10635 whole entry): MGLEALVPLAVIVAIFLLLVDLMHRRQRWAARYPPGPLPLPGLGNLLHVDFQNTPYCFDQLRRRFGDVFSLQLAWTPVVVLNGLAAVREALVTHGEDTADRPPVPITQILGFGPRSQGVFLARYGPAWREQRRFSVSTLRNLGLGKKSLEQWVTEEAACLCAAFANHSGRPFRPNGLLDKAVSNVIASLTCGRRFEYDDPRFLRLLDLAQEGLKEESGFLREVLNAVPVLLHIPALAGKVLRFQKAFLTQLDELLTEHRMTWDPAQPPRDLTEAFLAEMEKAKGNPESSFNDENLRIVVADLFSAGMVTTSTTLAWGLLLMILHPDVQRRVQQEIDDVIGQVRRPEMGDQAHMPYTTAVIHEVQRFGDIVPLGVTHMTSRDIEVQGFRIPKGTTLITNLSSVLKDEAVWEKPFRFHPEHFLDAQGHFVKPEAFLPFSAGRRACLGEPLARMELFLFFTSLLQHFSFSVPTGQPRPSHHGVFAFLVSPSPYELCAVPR

Compound: [Aib^1.3, Phe^7, Nle^8, Arg^11, Ala^12, Trp^14]PTH(1-14)
- activation of the PTH1R in vitro [1]: activated the PTH1R in vitro
- bone-anabolic activity [2]: did not exhibit any bone-anabolic activity

Compound: CC[C@H](C)[C@H](NC(=O)[C@H](CCC(=O)O)NC(=O)C(C)(C)NC(=O)[C@@H](NC(=O)C1(N)CCCC1)C(C)C)C(=O)N[C@@H](CCC(N)=O)C(=O)N[C@@H](CC(C)C)C(=O)N[C@@H](CCSC)C(=O)N[C@@H](Cc1c[nH]cn1)C(=O)N[C@@H](CCC(N)=O)C(=O)N[C@@H](CCCCNC(=N)N)C(=O)N[C@@H](C)C(=O)N[C@@H](CCCCN)C(=O)N[C@@H](Cc1c[nH]c2ccccc12)C(=O)N[C@@H](CC(C)C)C(=O)N[C@@H](CC(N)=O)C(=O)N[C@@H](CC(N)=O)C(N)=O [SEQ ID NO: 3, H-Ac5c-Val-Aib-Glu-Ile-Gln-Leu-Met-His-Gln-Har-Ala-Lys-Trp-Leu-Asn-Asn-NH2] (H-[Ac5c]V[Aib]EIQLMHQ[hArg]AKWLNN-NH2)
- CYP2D6 activity (% of vehicle) [3]: 21 % of vehicle
- EC50 [4]: 9.12 nM
- Emax ± SEM [4]: 1.06 ± 0.06
- EC50 [5]: 2.51 nM
- Emax ± SEM [pmol/well] [5]: 5.5 ± 0.9 pmol/well

Compound: CC[C@H](C)[C@H](NC(=O)[C@H](CCC(=O)O)NC(=O)C(C)(C)NC(=O)[C@@H](NC(=O)C1(N)CCCC1)C(C)C)C(=O)N[C@@H](CCC(N)=O)C(=O)N[C@@H](CC(C)C)C(=O)N[C@@H](CCSC)C(=O)N[C@@H](Cc1c[nH]cn1)C(=O)N[C@@H](CCC(N)=O)C(=O)N[C@@H](CCCCNC(=N)N)C(=O)N[C@@H](C)C(=O)N[C@@H](CCCCN)C(=O)N[C@@H](Cc1c[nH]c2ccccc12)C(N)=O [SEQ ID NO: 31, H-Ac5c-Val-Aib-Glu-Ile-Gln-Leu-Met-His-Gln-Har-Ala-Lys-Trp-NH2, reference compound] (H-[Ac5c]V[Aib]EIQLMHQ[hArg]AKW-NH2)
- CYP2D6 activity (% of vehicle) [3]: 22 % of vehicle
- EC50 [4]: 21.9 nM
- Emax ± SEM [4]: 1.07 ± 0.04
- EC50 [5]: 3.98 nM
- Emax ± SEM [pmol/well] [5]: 4.5 ± 1.0 pmol/well

Compound: CC[C@H](C)[C@H](NC(=O)[C@H](CCC(=O)O)NC(=O)C(C)(C)NC(=O)[C@@H](NC(=O)C1(N)CCCC1)C(C)C)C(=O)N[C@@H](CCC(N)=O)C(=O)N[C@@H](CC(C)C)C(=O)N[C@@H](CCSC)C(=O)N[C@@H](Cc1c[nH]cn1)C(=O)N[C@@H](CCC(N)=O)C(=O)N[C@@H](CCCCNC(=N)N)C(=O)N[C@@H](C)C(=O)N[C@@H](CCCCN)C(=O)N[C@@H](Cc1c[nH]c2ccccc12)C(=O)N[C@@H](CC(C)C)C(=O)N[C@@H](CC(N)=O)C(=O)N[C@@H](CC(=O)O)C(N)=O [SEQ ID NO: 42, H-Ac5c-Val-Aib-Glu-Ile-Gln-Leu-Met-His-Gln-Har-Ala-Lys-Trp-Leu-Asn-Asp-NH2] (H-[Ac5c]V[Aib]EIQLMHQ[hArg]AKWLND-NH2)
- CYP2D6 activity (% of vehicle) ([3]; listed as 42): 29 % of vehicle
- CYP2D6 activity (% of vehicle) ([3]; listed as SEQ ID NO:42): 29 % of vehicle
- EC50 [4]: 20.9 nM
- Emax ± SEM [4]: 1.03 ± 0.07
- EC50 [5]: 6.31 nM
- Emax ± SEM [pmol/well] [5]: 5.7 ± 1.0 pmol/well

Compound: PTH(1-29): truncated PTH fragment from the literature (Murrills et al. 2004) (SVSEIQLMHNLGKHLNSMERVEWLRKKLQ; Parathyroid hormone; UniProt P01270 32-60, looked up, fragment)
- bone-anabolic activity, fold less potent than PTH(1-34) ([2]; ovariectomized rat model): approximately 20 fold

Compound: [Ala^1.3, Nle^8, Gln^10, Har^11, Trp^14, Arg^19, Tyr^21]rPTH(1-21) [MPTH(1-21)]
- bone-anabolic activity [2]: inactive
